Data as given in ChEMBL document CHEMBL3286286, “2-(2-Arylphenyl)benzoxazole As a Novel Anti-Inflammatory Scaffold: Synthesis and Biological Evaluation” (ACS Med Chem Lett, 2014).

Key:
[1] = biological target: T1, Prostaglandin G/H synthase 2 (Homo sapiens, UniProt P35354); test: Inhibition of human recombinant COX2 using arachidonic acid as substrate
T1 sequence (P35354 whole entry): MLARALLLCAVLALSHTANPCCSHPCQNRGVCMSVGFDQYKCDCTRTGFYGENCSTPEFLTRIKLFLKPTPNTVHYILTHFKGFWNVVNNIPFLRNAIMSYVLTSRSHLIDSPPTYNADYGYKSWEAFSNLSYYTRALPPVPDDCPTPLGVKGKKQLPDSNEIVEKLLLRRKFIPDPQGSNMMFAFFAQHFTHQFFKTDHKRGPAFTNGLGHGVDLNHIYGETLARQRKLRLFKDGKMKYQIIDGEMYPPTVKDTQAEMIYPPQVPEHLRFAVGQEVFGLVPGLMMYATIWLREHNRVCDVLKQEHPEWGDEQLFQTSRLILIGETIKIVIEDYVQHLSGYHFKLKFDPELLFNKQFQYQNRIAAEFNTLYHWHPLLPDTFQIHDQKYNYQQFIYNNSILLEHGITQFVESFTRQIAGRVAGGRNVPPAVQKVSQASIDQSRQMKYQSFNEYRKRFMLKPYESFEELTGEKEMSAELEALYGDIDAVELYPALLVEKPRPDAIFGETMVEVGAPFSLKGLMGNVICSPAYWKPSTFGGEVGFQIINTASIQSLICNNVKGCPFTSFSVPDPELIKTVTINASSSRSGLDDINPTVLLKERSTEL

[2] = biological target: T2, Prostaglandin G/H synthase 1 (Ovis aries) (UniProt P05979); test: Inhibition of ovine COX1 using arachidonic acid as substrate at 10 uM
T2 sequence (whole entry): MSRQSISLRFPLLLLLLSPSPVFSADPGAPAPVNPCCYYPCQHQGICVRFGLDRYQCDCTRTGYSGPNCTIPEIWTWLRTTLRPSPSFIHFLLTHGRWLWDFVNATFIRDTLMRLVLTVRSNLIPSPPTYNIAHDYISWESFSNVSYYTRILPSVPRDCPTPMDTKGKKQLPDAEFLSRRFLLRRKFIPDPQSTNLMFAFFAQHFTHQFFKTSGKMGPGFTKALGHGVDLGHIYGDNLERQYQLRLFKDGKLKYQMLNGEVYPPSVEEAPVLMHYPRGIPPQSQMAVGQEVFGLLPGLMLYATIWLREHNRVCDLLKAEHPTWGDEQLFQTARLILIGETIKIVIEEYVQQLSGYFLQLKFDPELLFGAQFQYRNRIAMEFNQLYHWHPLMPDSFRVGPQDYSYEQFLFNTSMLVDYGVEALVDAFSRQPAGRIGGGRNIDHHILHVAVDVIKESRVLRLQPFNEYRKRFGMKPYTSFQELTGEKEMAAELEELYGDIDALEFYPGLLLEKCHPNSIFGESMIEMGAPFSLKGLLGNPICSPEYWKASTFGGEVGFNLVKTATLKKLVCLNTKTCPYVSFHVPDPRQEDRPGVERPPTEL

[3] = biological target: T3, Prostaglandin G/H synthase 1 (Ovis aries, UniProt P05979); test: Inhibition of ovine COX1 using arachidonic acid as substrate
T3 sequence (P05979 whole entry): T2 sequence (whole entry)

[4] = Selectivity for human recombinant COX2 to ovine COX1
[5] = test system: Rattus norvegicus; test: Antiinflammatory activity in Wistar albino rat assessed as reduction in carrageenan-induced hind paw volume at 25 mg/kg, ip administered 10 mins after carrageenan-challenge measured up to 3 hrs; format: functional; details: route intraperitoneal
[6] = biological target: T4, Prostaglandin G/H synthase 2 (Homo sapiens) (UniProt P35354); details: at 10 µM
T4 sequence (whole entry): T1 sequence (P35354 whole entry)
Description: Inhibition of human recombinant COX2 using arachidonic acid as substrate at 10 uM

[7] = Selectivity index, ratio of IC50 for ovine COX1 to IC50 for human recombinant COX2
[8] = test system: Rattus norvegicus; test: Antiinflammatory activity in Wistar albino rat assessed as reduction in carrageenan-induced hind paw volume at 12.5 mg/kg, ip administered 10 mins after carrageenan-challenge measured up to 3 hrs; format: functional; details: route intraperitoneal

| SMILES | IC50 [1] [µM] | inhibition [2] [%] | IC50 [3] [µM] | Selectivity ratio [4] | inhibition in vivo at 25 mg/kg [5] [%] | inhibition [6] [%] | Ratio IC50 [7] | inhibition in vivo at 12.5 mg/kg [8] [%] |
| --- | --- | --- | --- | --- | --- | --- | --- | --- |
| CS(=O)(=O)c1ccc(-c2ccccc2-c2nc3ccccc3o2)cc1 | 1.34 | 10.8 | 45.1 | 6.96 | 75 | 75.1 | 33.6 | 62.5 |
| CC(C)Oc1ccc(-c2ccccc2-c2nc3ccccc3o2)cc1Cl | – | 2.19 | – | 15.5 | – | 33.9 | – | – |
| Clc1cc(-c2ccccc2-c2nc3ccccc3o2)ccc1OCc1ccccc1 | – | 10.3 | – | 1.65 | – | 17 | – | – |
| COc1ccc(-c2ccccc2-c2nc3ccccc3o2)cc1OC | – | 58.2 | – | 1.49 | – | 86.6 | – | – |
| COc1ccc(-c2ccccc2-c2nc3ccccc3o2)cc1Cl | 0.67 | 6.45 | 46.8 | 12.6 | 64.4 | 81.4 | 69.8 | 53.9 |
| c1ccc(-c2ccccc2-c2nc3ccccc3o2)cc1 | – | 24 | – | 0.44 | – | 10.6 | – | – |
| COc1ccc(-c2ccccc2-c2nc3ccccc3o2)cc1OC1CCCC1 | – | 17.1 | – | 0.87 | – | 14.8 | – | – |
| O=C(O)Cc1ccccc1Nc1c(Cl)cccc1Cl [DICLOFENAC] | – | – | – | – | 84.6 | – | – | 67.3 |
| O=Cc1ccc(-c2ccccc2-c2nc3ccccc3o2)cc1 | – | 6.58 | – | 8.81 | – | 58 | – | – |
| FC(F)(F)c1ccc(-c2ccccc2-c2nc3ccccc3o2)cc1 | – | 3.45 | – | 3.38 | – | 11.7 | – | – |
| CSc1ccc(-c2ccccc2-c2nc3ccccc3o2)cc1 | – | 4.07 | – | 10.7 | – | 43.5 | – | – |
| Cc1ccc(-c2cc(C(F)(F)F)nn2-c2ccc(S(N)(=O)=O)cc2)cc1 [CELECOXIB] | – | – | – | – | 74.6 | – | – | 60.6 |
| COc1ccc(-c2ccccc2-c2nc3ccccc3o2)cc1 | – | 19.1 | – | 0.78 | – | 14.8 | – | – |
| Fc1ccc(-c2ccccc2-c2nc3ccccc3o2)cc1 | – | 1.65 | – | 1.57 | – | 8.46 | – | – |
| COc1cccc(-c2ccccc2-c2nc3ccccc3o2)c1OC | – | 74.9 | – | 0.8 | – | 59.9 | – | – |
| N#Cc1ccc(-c2ccccc2-c2nc3ccccc3o2)cc1 | – | 8.46 | – | 4.83 | – | 40.9 | – | – |
| Oc1ccc(-c2ccccc2-c2nc3ccccc3o2)cc1Cl | 0.41 | 7.56 | 46.2 | 12.6 | 82.7 | 94.9 | 113 | 68.3 |
